US8324383B2, “Methods of making polymorphs of benzoate salt of 2-[[6-[(3R)-3-amino-1-piperidinyl]-3,4-dihydro-3-methyl-2,4-dioxo-1(2H)-pyrimidinyl]methyl]-benzonitrile” (Takeda Pharmaceutical Company Limited, priority 2006, dated 2012)
“Also recorded” adds a separate entry of the source. Structures can show the parent of a compound that is named as a salt. Where two headings read alike, the source gives them in different places. Values belong to the molecule of their own block, whether it stands above or below them.

What was measured:
Format in all cases: physicochemical
[1] = Stress studies (relative humidity / temperature), solid form by XRPD; details: for Result (solid form by XRPD after stress): glassy material
Protocol: Vapor Stress (VS) Experiments: Form A was dispensed into a small vial, which was placed, uncapped, in a larger vial containing a diffusing solvent. The larger vial was sealed and stored at ambient temperature. Samples were also stressed in ovens at elevated temperatures and under different relative humidity conditions.
X-ray powder diffraction analyses were performed using a Shimadzu XRD-6000 X-ray powder diffractometer using Cu Kα radiation. The instrument is equipped with a long fine focus X-ray tube. The tube voltage and amperage were set to 40 kV and 40 mA, respectively. The divergence and scattering slits were set at 1° and the receiving slit was set at 0.15 mm. Diffracted radiation was detected by a NaI scintillation detector. A θ-2θ continuous scan at 3°/min (0.4 sec/0.02° step) from 2.5 to 40 °2θ was used. A silicon standard was analyzed to check the instrument alignment. Data were collected and analyzed using XRD-6000 v. 4.1. Samples were prepared for analysis by placing them in an aluminum holder with silicon insert.

[2] = Moisture sorption/desorption analysis (VTI SGA-100); details: for moisture sorption behaviour in words: moisture sorption/desorption analysis; for solid form of the sample after moisture sorption/desorption (XRPD): post moisture sorption/desorption sample
Protocol: Moisture sorption/desorption data were collected on a VTI SGA-100 Vapor Sorption Analyzer. Sorption and desorption data were collected over a range of 5% to 95% relative humidity (RH) at 10% RH intervals under a nitrogen purge. Samples were not dried prior to analysis. Equilibrium criteria used for analysis were less than 0.0100% weight change in 5 minutes, with a maximum equilibration time of 3 hours if the weight criterion was not met. Data were not corrected for the initial moisture content of the samples. NaCl and PVP were used as calibration standards.

[3] = Solubility estimates in test solvents (aliquot addition, visual inspection); details: room temperature, approximate
Protocol: A weighed sample of Compound I was treated with aliquots of the test solvent at room temperature. The mixture was sonicated between aliquot additions to facilitate dissolution. Complete dissolution of the test material was determined by visual inspection. Solubilities were estimated from these experiments based on the total solvent used to provide complete dissolution. The actual solubility may be greater than those calculated because of the use of solvent aliquots that were too large or due to a slow rate of dissolution. […] If complete dissolution was achieved as a result of only one aliquot addition, the solubility is expressed as “greater than.”

[4] = Thermal analysis (DSC, TGA, melting point) - thermal stability; details: solid phase
Protocol: Differential scanning calorimetry was performed using a TA Instruments differential scanning calorimeter 2920. The sample was placed into an aluminum DSC pan, and the weight accurately recorded. The pan was covered with a lid and then crimped. The sample cell was equilibrated at ambient temperature and heated under a nitrogen purge at a rate of 10° C./min, up to a final temperature of 350° C. Indium metal was used as the calibration standard. Reported temperatures are at the transition maxima.
Thermogravimetric analyses were performed using a TA Instruments 2950 thermogravimetric analyzer. Each sample was placed in an aluminum sample pan and inserted into the TG furnace. The furnace was first equilibrated at ambient temperature, then heated under nitrogen at a rate of 10° C./min, up to a final temperature of 350° C. Nickel and Alumel™ were used as the calibration standards.
Hot stage microscopy was performed using a Linkam hot stage mounted on a Leica DM LP microscope. Samples were observed using a 20× objective with a lambda plate with crossed polarizers. Samples were sandwiched between two coverslips and visually observed as the stage was heated. Images were captured using a SPOT Insight™ color digital camera with SPOT Software v. 3.5.8. The hot stage was calibrated using sulfapyridine and vanillin USP melting point standards.

Weight chg (%) ([2]; Sample RH 5.25, 25.00 °C, 151.0 min): −0.953%
weight gain ([2]; between 5% and 95% RH): about 6.5%
weight loss ([2]; between 85% and 95% RH): about 5%
Weight chg (%) ([2]; desorption, Sample RH 5.06, 24.99 °C, 2238.3 min): −2.007%
Weight chg (%) ([2]; desorption, Sample RH 15.16, 24.99 °C, 2221.4 min): −1.980%
Weight chg (%) ([2]; desorption, Sample RH 24.87, 24.99 °C, 2199.9 min): −1.946%
Weight chg (%) ([2]; desorption, Sample RH 34.87, 24.99 °C, 2081.7 min): −1.737%
Weight chg (%) ([2]; desorption, Sample RH 45.08, 25.01 °C, 1894.1 min): −1.208%
Weight chg (%) ([2]; desorption, Sample RH 55.16, 25.00 °C, 1706.6 min): −0.421%
Weight chg (%) ([2]; desorption, Sample RH 65.12, 24.98 °C, 1517.0 min): 0.655%
Weight chg (%) ([2]; desorption, Sample RH 75.25, 24.98 °C, 1327.5 min): 1.908%
Weight chg (%) ([2]; desorption, Sample RH 85.49, 24.98 °C, 1139.9 min): 3.348%
initial weight loss ([2]; from ambient conditions to 5% RH): approximately 1%
moisture sorption behaviour in words [2]: very hygroscopic
Weight chg (%) ([2]; sorption, Sample RH 14.81, 25.00 °C, 197.3 min): −0.456%
Weight chg (%) ([2]; sorption, Sample RH 24.80, 24.99 °C, 253.1 min): 0.025%
Weight chg (%) ([2]; sorption, Sample RH 34.93, 24.98 °C, 329.5 min): 0.569%
Weight chg (%) ([2]; sorption, Sample RH 44.84, 24.99 °C, 508.3 min): 1.669%
Weight chg (%) ([2]; sorption, Sample RH 54.90, 24.98 °C, 603.1 min): 3.680%
Weight chg (%) ([2]; sorption, Sample RH 64.85, 24.97 °C, 655.1 min): 5.782%
Weight chg (%) ([2]; sorption, Sample RH 74.54, 24.98 °C, 723.7 min): 8.432%
Weight chg (%) ([2]; sorption, Sample RH 84.54, 24.98 °C, 764.6 min): 10.125%
Weight chg (%) ([2]; sorption, Sample RH 94.62, 24.95 °C, 952.3 min): 5.474%
Weight chg (%) ([2]; start, Sample RH 53.89, 24.98 °C, 0.1 min): 0.000%
weight gain ([2]; under 85% RH): 10%
SMILES: Cn1c(=O)cc(N2CCC[C@@H](N)C2)n(Cc2ccccc2C#N)c1=O [amorphous Form 1, benzoate salt of 2-[[6-[(3R)-3-amino-1-piperidinyl]-3,4-dihydro-3-methyl-2,4-dioxo-1(2H)-pyrimidinyl]methyl]-benzonitrile]
solid form of the sample after moisture sorption/desorption (XRPD) [2]: matched form A; also recorded: tentatively identified as containing form A

solubility ([3]; ethanol, organic solvent or mixture, thermodynamic from solid, solvent EtOH, read-out: Solubility): < 3000 µg/mL
solubility ([3]; methanol, organic solvent or mixture, thermodynamic from solid, solvent MeOH, read-out: Solubility): 13000 µg/mL
solubility ([3]; organic solvent or mixture, thermodynamic from solid, solvent CAN, read-out: Solubility): < 1000 µg/mL
solubility ([3]; organic solvent or mixture, thermodynamic from solid, solvent CH2Cl2, read-out: Solubility): < 3000 µg/mL
solubility ([3]; organic solvent or mixture, thermodynamic from solid, solvent DMF, read-out: Solubility): 6000 µg/mL
solubility ([3]; organic solvent or mixture, thermodynamic from solid, solvent EtOAc, read-out: Solubility): < 3000 µg/mL
solubility ([3]; organic solvent or mixture, thermodynamic from solid, solvent IPA, read-out: Solubility): < 1000 µg/mL
solubility ([3]; organic solvent or mixture, thermodynamic from solid, solvent MEK, read-out: Solubility): 3000 µg/mL
solubility ([3]; organic solvent or mixture, thermodynamic from solid, solvent MIBK, read-out: Solubility): < 3000 µg/mL
solubility ([3]; organic solvent or mixture, thermodynamic from solid, solvent THF, read-out: Solubility): < 1000 µg/mL
solubility ([3]; organic solvent or mixture, thermodynamic from solid, solvent acetone, read-out: Solubility): < 3000 µg/mL
solubility ([3]; organic solvent or mixture, thermodynamic from solid, solvent dioxane, read-out: Solubility): < 1000 µg/mL
solubility ([3]; solvent CH2Cl2, listed as Compound I Form A): <3000 µg/mL
solubility ([3]; solvent EtOAc, listed as Compound I Form A): <3000 µg/mL
solubility ([3]; solvent EtOH, listed as Compound I Form A): <3000 µg/mL
solubility ([3]; solvent MIBK, listed as Compound I Form A): <3000 µg/mL
solubility ([3]; solvent acetone, listed as Compound I Form A): <3000 µg/mL
solubility ([3]; thermodynamic from solid, solvent water, read-out: Solubility): 8000 µg/mL
Weight chg (%) ([2]; RH 5.18%, 25.20 °C, 14.1 min): 0.002%
weight loss ([2]; between 9% and 95% RH): about 0.05%
Weight chg (%) ([2]; desorption, RH 4.82%, 25.20 °C, 163.7 min): −0.004%
Weight chg (%) ([2]; desorption, RH 14.97%, 25.21 °C, 153.7 min): 0.032%
Weight chg (%) ([2]; desorption, RH 24.96%, 25.22 °C, 146.7 min): 0.035%
Weight chg (%) ([2]; desorption, RH 34.97%, 25.21 °C, 139.7 min): 0.008%
Weight chg (%) ([2]; desorption, RH 45.01%, 25.22 °C, 131.7 min): 0.012%
Weight chg (%) ([2]; desorption, RH 55.13%, 25.21 °C, 123.7 min): 0.014%
Weight chg (%) ([2]; desorption, RH 65.04%, 25.21 °C, 114.7 min): 0.016%
Weight chg (%) ([2]; desorption, RH 75.06%, 25.21 °C, 105.7 min): 0.017%
Weight chg (%) ([2]; desorption, RH 85.20%, 25.21 °C, 97.0 min): 0.019%
initial weight gain ([2]; from ambient conditions to 55% RH): approximately 0.035%
moisture sorption behaviour in words [2]: variable hydrate
solid form of the sample after moisture sorption/desorption (XRPD) [2]: form A
Weight chg (%) ([2]; sorption, RH 14.96%, 25.22 °C, 21.1 min): 0.001%
Weight chg (%) ([2]; sorption, RH 24.97%, 25.20 °C, 28.2 min): 0.001%
Weight chg (%) ([2]; sorption, RH 35.05%, 25.20 °C, 35.2 min): 0.002%
Weight chg (%) ([2]; sorption, RH 44.89%, 25.20 °C, 42.2 min): 0.004%
Weight chg (%) ([2]; sorption, RH 54.85%, 25.19 °C, 51.2 min): 0.035%
Weight chg (%) ([2]; sorption, RH 64.93%, 25.21 °C, 60.2 min): 0.039%
Weight chg (%) ([2]; sorption, RH 74.86%, 25.20 °C, 69.2 min): 0.041%
Weight chg (%) ([2]; sorption, RH 84.87%, 25.21 °C, 78.2 min): 0.045%
Weight chg (%) ([2]; sorption, RH 94.56%, 25.21 °C, 87.2 min): 0.049%
Weight chg (%) ([2]; start, RH 9.14%, 25.20 °C, 0.1 min): 0.000%
thermally stable (temperature) [4]: above 172 °C
SMILES: Cn1c(=O)cc(N2CCC[C@@H](N)C2)n(Cc2ccccc2C#N)c1=O [Form A, benzoate salt of 2-[[6-[(3R)-3-amino-1-piperidinyl]-3,4-dihydro-3-methyl-2,4-dioxo-1(2H)-pyrimidinyl]methyl]-benzonitrile]
phase change upon RH stress (XRPD) ([1]; various RH conditions at room temperature, several weeks): none of these samples had undergone a phase change

Continued, molecule first:

SMILES: Cn1c(=O)cc(N2CCC[C@@H](N)C2)n(Cc2ccccc2C#N)c1=O.O=C(O)c1ccccc1 [Compound 1924-83-06]
Result (solid form by XRPD after stress) ([1]; stress 79% RH/40° C., 9 days): form A

SMILES: Cn1c(=O)cc(N2CCC[C@@H](N)C2)n(Cc2ccccc2C#N)c1=O.O=C(O)c1ccccc1 [Compound 1966-27-01]
Result (solid form by XRPD after stress) ([1]; stress 79% RH/60° C., 1 hr): form A

SMILES: Cn1c(=O)cc(N2CCC[C@@H](N)C2)n(Cc2ccccc2C#N)c1=O.O=C(O)c1ccccc1 [Compound 1966-27-02]
Result (solid form by XRPD after stress) ([1]; stress 79% RH/60° C., 3 hrs): form A

SMILES: Cn1c(=O)cc(N2CCC[C@@H](N)C2)n(Cc2ccccc2C#N)c1=O.O=C(O)c1ccccc1 [Compound 1924-83-05]
Result (solid form by XRPD after stress) ([1]; stress 40° C., 9 days): form A
